{"source": "patent US9700043B2", "about": "“Corrosive ingredient(s)-containing compositions having reduced toxicity and method of obtaining” (S. C. Johnson & Son, Inc., priority 2014, dated 2017)", "test_system": "bovine cornea", "assay": "Bovine cornea opacity and permeability (BCOP) ocular irritation assay", "details": "mean data, Conc. neat, exposure time 10 minutes", "procedure": "Products including one or more ingredients which are corrosive in nature and present in a product at a level which normally cause ocular irritation are modified to have reduced ocular irritation without replacing the corrosive ingredient(s) and without reducing the amount of the corrosive ingredient(s) used in a product. The level of corrosiveness or the hazards of a product is determined under EPA regulations. EPA toxicity testing is based on determining the level of ocular irritation caused by a product. This EPA standard is used herein to evidence the reduced corrosive nature of products of the invention. The test used is the bovine cornea opacity and permeability (BCOP) method which is an Organization for Economic Co-operation and Development (OECD) validated method for assessing ocular irritation and has recently been accepted by the EPA as an alternative to the traditional Draize animal test. The BCOP test method is described in the “OECD Guidelines For The Testing Of Chemicals”, No. 437, adopted Jul. 26, 2013 and entitled “Bovine Corneal Opacity and Permeability Test Method for Identifying i) Chemicals Inducing Serious Eye Damage and ii) Chemicals Not Requiring Classification for Eye Irritation or Serious Eye Damage”. […]\nStep 3—Initial Opacity. The cMEM is removed and refilled and the initial opacity is read on an opacitometer. […]\nStep 5—Rinsing. Corneas are rinsed thoroughly to remove the test substance and incubated for two (2) hours before a final opacity reading. […]\nFormulas of the same ingredients as in Example 4 were also tested with lower or higher amounts of CARBOPOL® EZ-2 with respective adjustments in the water concentration. […] The viscosities of the 0.25% solution was ˜4 cps, of the 0.55% solution ˜10 cps, of the 0.75% solution ˜200 cps, of the 1.0% solution (shown above) ˜8,000 cps, (each of the former being measured by Brookfield LVT, spindle 1, speed 30 rpm) and of the 1.25% solution ˜18,700 cps (being measured by Brookfield LVT, spindle 4, speed 30 rpm). […]"}
{"smiles": "CCO", "note": "[Ethanol (Control), Ethanol]", "values": [{"measurement": "OD490 Value", "setting": "fluorescein permeability", "result": 0.899}, {"measurement": "Opacity Value", "setting": "n=3 corneas per sample", "result": 28.7}, {"measurement": "In Vitro Score", "setting": "EPA: score ≧75 = Category I", "result": 42.2}]}
